Here are results for 5 molecules from patent publication US8492362B1, “5-(E)-Bromovinyl uracil analogues and related pyrimidine nucleosides as anti-varicella zoster virus agents and methods of use” (priority 2011, dated 2013).

Molecules are shown by their SMILES. Read-outs that look alike come from different tables or passages of the source.

The subject of series [1] is human foreskin fibroblasts (HFFs). Nature of the series: Neutral red dye uptake cytotoxicity assay in HFFs. The class given is cell-based. Particulars: 35 nM. As to the method:
The neutral red (NR) cytotoxicity assay was performed as described previously (Rowe et al.) and is based on the method of (Babich et al., 2002).
To determine the toxicity of L-BHDU in culture, a neutral red dye uptake assay was performed. The amount of dye absorbed is directly proportional to cell number and membrane integrity (Repetto et al., 2008). Primary human foreskin fibroblasts (HFFs) were treated with either 35 nM staurosporine to induce apoptosis, DMSO diluent alone, or 0.1 to 200 μM L-BHDU, refreshed daily. The uptake of neutral red dye was evaluated at 0, 24, 48, and 72 h post treatment. Absorbance values from 6 replicates at each dose were averaged and plotted against treatment time (FIG. 1A). […] In the cultures treated with 200 μM L-BHDU or DMSO at an equivalent diluent concentration, cell viability declined between 48-72 h. […] This substantiates previous reports that L-BHDU caused no cell growth arrest up to 200 μM in HEL 299 cells (human embryonic lung) (Li et al., 2000).

The subject of series [2] is VZV-BAC-Luc. The class given is in vivo, Varicella-zoster virus. The following applies: 3 mg/mL in drinking water.
A further series concerns VZV. The following applies: Oliver et al., 2008; cited from earlier work.
For series [3] the following is noted: 3 mg/mL in drinking water.
The conditions of series [4]: herpes zoster patients, 125 mg/day; cited from earlier work.
Series [5] deals with VZV-BAC-Luc. Particulars: 36 mg/kg/day subcutaneously from osmotic pumps; cited from earlier work.
For series [6], the system named is VZV-BAC-Luc. The class given is cell-based, Varicella-zoster virus. Particulars: HFF at 48 hpi, read-out: EC50 in HFF, prodrug study.
In series [7] the test system is VZV-BAC-Luc. In words: VZV-BAC-Luc dose-response in human skin organ culture (SOC). The following applies: read-out: EC50 in skin organ culture (SOC), skin explants, Day 6 (6 dpi).

As to `CN[C@@H]1C[C@H]2O[C@@](C)([C@@H]1OC)n1c3ccccc3c3c4c(c5c6ccccc6n2c5c31)C(=O)NC4` [staurosporine, reference compound], the “cell viability, positive control for cell death” value in series [1] was “no viable cells were detected”.
In the case of `CC(C)[C@H](N)C(=O)OCCOCn1cnc2c(=O)[nH]c(N)nc21` [valaciclovir, reference compound], the “antiviral effect in SCID-Hu mice” value in the series on VZV-BAC-Luc [2] is reported as “no antiviral effect”; with VZV-BAC-Luc [2] (listed as VACV), “not effective”. Also, the “average VZV growth rate” value with VZV-BAC-Luc [2] (n=5) was 0.62±0.05 log10 photons/s/day. The “effect on VZV replication in SCID-Hu mice” value with VZV is given as “little to no effect”. The “loss of body weight” value in series [3] is over 20%.
On to `O=c1[nH]c(=O)n([C@H]2C[C@H](O)[C@@H](CO)O2)cc1/C=C/Br` [brivudin, (E)-5-(2-bromovinyl)-2′-deoxyuridine], for which the “Cmax (plasma)” value in series [4] is 1700 ng/mL.
For the molecule `O=C(O)CP(=O)(O)O` [phosphonoacetic acid (PAA), phosphonoacetic acid], in the series on VZV-BAC-Luc [5], the “effect on VZV growth in SCID-Hu model (Rowe et al.)” value is “significantly reduced VZV growth”.
As a reminder, the EC50 is the concentration needed to bring the measured effect to its halfway point. As for `CC(C)C(N)C(=O)OCC1OCC(n2cc(C=CBr)c(=O)[nH]c2=O)O1` (stereo not shown) [valyl derivative], the concentration for a half-maximal effect (EC50) in the series on VZV-BAC-Luc [6] came out at 38 nM; in the series with VZV-BAC-Luc [7] it was 50 nM.
